Measured values from US8871796B2, “Diaryl ether derivatives as notch sparing gamma secretase inhibitors” (Merck Sharp & Dohme Corp., priority 2009, dated 2014).
Read-outs that look alike come from different tables or passages of the source.

Assays:
[1] = Pharmacokinetics in rats, IV or PO dosing, plasma LC-MS/MS; assay type: in vivo, Sprague Dawley rats; conditions: for clearance / bioavailability / half-life: Sprague Dawley; for clearance: intravenous, read-out: Rat Cl; for AUC(Norm)(0-x): dose-normalised
Method: Pharmacokinetic parameters are determined in Sprague Dawley rats, Beagle dogs or Rhesus monkeys by dosing the compounds intravenously (IV) or orally (PO). A dose of 0.25 mg/kg is administered either IV or PO to each subject with a dosing solution of 0.25 mg/ml in a 30:70 v/v mixture of PEG400:40% Captisol®. Plasma samples are collected at 5 min. (IV only), 15 min., 30 min., 1 h, 2 h, 4 h, 6 h, 8 h, 24 h, 48 h, 72 h, 96 h, 120 h, 144 h, and 168 h. Samples are analyzed by LC-MS/MS (API5000™) to determine the concentration in plasma. Briefly, 50 μL plasma is precipitated with 200 μL acetonitrile containing an appropriate internal standard. Samples are filtered, 500 pt of water is added to each sample and 10 μl, of this is injected on a C18 column (2.0 mm×30 mm, 3 μm particle size) and eluted using a gradient LC method with water containing 0.1% formic acid as the aqueous mobile phase, and acetonitrile containing 0.1% formic acid as the organic phase. Electrospray ionization with multiple reaction monitoring is used for MS/MS detection. Plasma concentration of the compounds is determined using a standard curve that was prepared similar to the samples in the respective matrix. Non-compartmental analysis is performed using Watson 7.2 to generate the PK parameters.

[2] = APP processing: AlphaLisa assay of secreted Aβ40 and Aβ42 from SP4CT cells; assay type: cell-based; conditions: Homo sapiens, SH-SY5Y cells expressing amyloid β protein (SP4CT cells)
Summary of the method: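 Media from compound-treated SP4CT cells (SH-SY5Y expressing amyloid β protein) was assayed by AlphaLisa. Donor beads carried biotinylated 4G8 anti-Aβ antibody; acceptor beads carried G210 (Aβ40) or 12F4 (Aβ42) in separate plates, with luminescence proportional to peptide abundance.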

[3] = plasma, rat, 0.25 mg/kg IV or PO
[4] = read-out: IC50, inhibition of production of Aβ40 peptide
[5] = read-out: IC50, inhibition of production of Aβ42 peptide

clearance ([1]; rat, 0.25 mg/kg, plasma) [mL/min/kg] | bioavailability [1, 3] [%] | half-life ([1]; rat, 0.25 mg/kg, plasma) [h] | AUC(Norm)(0-x) ([1]; rat, 0.25 mg/kg, plasma) [µM·kg·h/mg] | IC50 [2, 4] [nM] | IC50 [2, 5] [nM] | Rat Cl ([1]; 0.25 mg/kg, plasma) [mL/min/kg] | % F ([1]; rat, 0.25 mg/kg IV or PO) [%] | t1/2 ([1]; rat, 0.25 mg/kg, plasma) [h] | Compound
 |  |  |  | < 200 | < 200 |  |  |  | O=S(=O)(CC(F)(F)F)NC1(c2cccc(-c3cc(Oc4ccc(C(F)(F)F)cc4)n(CC4CCOCC4)n3)c2)COC1 [Example 139, N-(3-{3-[5-(4-trifluoromethylphenoxy)-1-(tetrahydro-2H-pyran-4-ylmethyl)-1H-pyrazol-3-yl]phenyl}oxetan-3-yl)-2,2,2-trifluoroethanesulfonamide]
 |  |  |  | < 200 | < 200 |  |  |  | O=S(=O)(CC(F)(F)F)NC1(c2cccc(-c3cc(Oc4ccc(C(F)(F)F)cc4)n(CC4CCCCO4)n3)c2)COC1 (centres unmarked) [Example 140]
 |  |  |  | < 200 | < 200 |  |  |  | COCCn1nc(-c2cccc(C3(NS(=O)(=O)CC(F)(F)F)COC3)c2)cc1Oc1ccc(C(F)(F)F)cc1 [Example 141, N-(3-{3-[5-(4-trifluoromethylphenoxy)-1-(2-methoxyethyl)-1H-pyrazol-2-yl]phenyl}oxetan-3-yl)-2,2,2-trifluoroethanesulfonamide]
 |  |  |  | < 200 | < 200 |  |  |  | COCCCn1nc(-c2cccc(C3(NS(=O)(=O)CC(F)(F)F)COC3)c2)cc1Oc1ccc(C(F)(F)F)cc1 [Example 142]

Second part, the compound before the results:

Compound | clearance ([1]; rat, 0.25 mg/kg, plasma) [mL/min/kg] | bioavailability [1, 3] [%] | half-life ([1]; rat, 0.25 mg/kg, plasma) [h] | AUC(Norm)(0-x) ([1]; rat, 0.25 mg/kg, plasma) [µM·kg·h/mg] | IC50 [2, 4] [nM] | IC50 [2, 5] [nM] | Rat Cl ([1]; 0.25 mg/kg, plasma) [mL/min/kg] | % F ([1]; rat, 0.25 mg/kg IV or PO) [%] | t1/2 ([1]; rat, 0.25 mg/kg, plasma) [h]
CCn1nc(COc2ccc(F)cc2)cc1-c1cccc(C(C)(C)NS(=O)(=O)NC2CCC2)c1 [Example 2 from WO 2004/089911 A1, reference compound] | 43 | 9 | 2.3 | 0.79 |  |  |  |  | 
CCn1nc(Oc2ccc(C(F)(F)F)cc2)cc1-c1cccc(C(C)(C)NS(=O)(=O)NCC(F)(F)F)c1 [Example 19, N-[1-(3-{1-ethyl-3-[4-(trifluoromethyl)phenoxy]-1H-pyrazol-5-yl}phenyl)-1-methylethyl]-N′-(2,2,2-trifluoroethyl)sulfamide] | 31 | 75 | 9 | 0.96 | < 200 | < 200 |  |  | 
CCn1nc(-c2cccc(C(C)(C)NS(=O)(=O)CC(F)(F)F)c2)cc1CN1CCC(C(F)(F)F)CC1 [Example 23 from WO 2004/089911 A1, reference compound] | 120 |  | 5.4 | 0.25 |  |  |  |  | 
CCn1nc(COc2ccc(C#N)cc2)cc1-c1cccc(C(C)(C)NS(=O)(=O)NC(F)(F)F)c1 [Example 27 from WO 2004/089911 A1, reference compound] | 35 | 28 | 4.8 | 0.92 |  |  |  |  | 
CCn1nc(-c2cccc(C3(NS(=O)(=O)NCC(F)(F)F)COC3)c2)cc1Oc1ccc(C(F)(F)F)cc1 [Example 96, N-[3-(3-{1-ethyl-5-[4-(trifluoromethyl)phenoxy]-1H-pyrazol-3-yl}phenyl)oxetan-3-yl]-N′-(2,2,2-trifluoroethyl)sulfamide] | 41 | 12 | 2.8 | 0.09 | < 200 | < 200 |  |  | 
N-(1-{3-[1-ethyl-3-(4-fluorophenoxy)-1H-pyrazol-5-yl]phenyl}-1-methylethyl)-2,2,2-trifluoroethanesulfonamide [Example 53] |  |  |  | 35 |  |  | 1 | 70 | 16
